Results reported in the supplement of paper PMC9663587.

Columns and labels:
[1] = compound: CO[C@@H](C)Cn1c(=O)n(C)c2cnc3ccc(-c4cncc(C(C)(C)O)c4)cc3c21
Flavopiridol [2] = compound: T1, CN1CC[C@H](c2c(O)cc(O)c3c(=O)cc(-c4ccccc4Cl)oc23)[C@H](O)C1 [Flavopiridol]
Taselisib/GDC0032 = compound: Cc1nc(-c2cn3c(n2)-c2ccc(-c4cnn(C(C)(C)C(N)=O)c4)cc2OCC3)n(C(C)C)n1 [Taselisib/GDC0032]
Saracatinib/AZD0530 = compound: CN1CCN(CCOc2cc(OC3CCOCC3)c3c(Nc4c(Cl)ccc5c4OCO5)ncnc3c2)CC1 [Saracatinib/AZD0530]
ABT-737 = compound: CN(C)CC[C@H](CSc1ccccc1)Nc1ccc(S(=O)(=O)NC(=O)c2ccc(N3CCN(Cc4ccccc4-c4ccc(Cl)cc4)CC3)cc2)cc1[N+](=O)[O-] [ABT-737]
YKL-5-124 = compound: C=CC(=O)Nc1ccc(C(=O)Nc2[nH]nc3c2CN(C(=O)N[C@H](CN(C)C)c2ccccc2)C3(C)C)cc1 [YKL-5-124]; experiment: GR value, 72 h; higher = faster growth (1 = untreated, <0 = killing);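 note: breast cancer and non-malignant breast epithelial lines, nine half-log doses, viable cells counted by Hoechst and LIVE/DEAD dye imaging versus time-zero plates and DMSO controls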
Flavopiridol [3] = compound: T1, Flavopiridol; experiment: as above
[4] = compound: CC(=O)c1c(C)c2cnc(Nc3ccc(N4CCNCC4)cn3)nc2n(C2CCCC2)c1=O; experiment: as above
BSJ-03-123 = compound: CC(=O)c1c(C)c2cnc(Nc3ccc(N4CCN(CCOCCOCCOCCNC(=O)COc5cccc6c5C(=O)N(C5CCC(=O)NC5=O)C6=O)CC4)cn3)nc2n(C2CCCC2)c1=O [BSJ-03-123]; experiment: as above
[5] = compound: CCc1cnn2c(NCc3ccc[n+]([O-])c3)cc(N3CCCC[C@H]3CCO)nc12; experiment: as above
Neratinib/HKI272 = compound: CCOc1cc2ncc(C#N)c(Nc3ccc(OCc4ccccn4)c(Cl)c3)c2cc1NC(=O)/C=C/CN(C)C [Neratinib/HKI272]; experiment: as above
[6] = compound: CCN1CCN(Cc2ccc(Nc3ncc(F)c(-c4cc(F)c5nc(C)n(C(C)C)c5c4)n3)nc2)CC1; experiment: as above
THZ531 = compound: CN(C)C/C=C/C(=O)Nc1ccc(C(=O)N2CCC[C@@H](Nc3ncc(Cl)c(-c4c[nH]c5ccccc45)n3)C2)cc1 [THZ531]; experiment: as above
LEE011/Ribociclib = compound: CN(C)C(=O)c1cc2cnc(Nc3ccc(N4CCNCC4)cn3)nc2n1C1CCCC1 [LEE011/Ribociclib]; experiment: as above
THZ1 = compound: CN(C)C/C=C/C(=O)Nc1ccc(C(=O)Nc2cccc(Nc3ncc(Cl)c(-c4c[nH]c5ccccc45)n3)c2)cc1 [THZ1]; experiment: as above
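Throughout, for GR50, 72 h: breast cancer and non-malignant breast epithelial cell lines, Deep Dye Drop or Dye Drop imaging, nine half-log doses, GR normalized to time-zero plates and DMSO-only controls.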

ZR751
GR50, 72 h [1]: 0.0135 µM
GR50, 72 h (Flavopiridol [2]): 0.35 µM
GR50, 72 h (Taselisib/GDC0032): 0.277 µM
GR50, 72 h (Saracatinib/AZD0530): 3.66 µM
GR50, 72 h (ABT-737): > 10 µM
GR value (YKL-5-124; 0.001 µM): 0.57 GR
GR value (YKL-5-124; 0.003162 µM): 0.342 GR
GR value (YKL-5-124; 0.01 µM): 0.325 GR
GR value (YKL-5-124; 0.03162 µM): 0.282 GR
GR value (YKL-5-124; 0.1 µM): 0.254 GR
GR value (YKL-5-124; 0.3162 µM): 0.238 GR
GR value (YKL-5-124; 1 µM): 0.239 GR
GR value (YKL-5-124; 3.162 µM): 0.223 GR
GR value (YKL-5-124; 10 µM): 0.128 GR
GR value (Flavopiridol [3]; 0.0001 µM): 0.988 GR
GR value (Flavopiridol [3]; 0.0003162 µM): 0.993 GR
GR value (Flavopiridol [3]; 0.001 µM): 0.995 GR
GR value (Flavopiridol [3]; 0.003162 µM): 0.915 GR
GR value (Flavopiridol [3]; 0.01 µM): 0.952 GR
GR value (Flavopiridol [3]; 0.03162 µM): 0.988 GR
GR value (Flavopiridol [3]; 0.1 µM): 0.935 GR
GR value (Flavopiridol [3]; 0.3162 µM): 0.577 GR
GR value (Flavopiridol [3]; 1 µM): -0.371 GR
GR value ([4]; 0.0003162 µM): 1.02 GR
GR value ([4]; 0.001 µM): 0.998 GR
GR value ([4]; 0.003162 µM): 1.03 GR
GR value ([4]; 0.01 µM): 1.02 GR
GR value ([4]; 0.03162 µM): 1.02 GR
GR value ([4]; 0.1 µM): 0.844 GR
GR value ([4]; 0.3162 µM): 0.719 GR
GR value ([4]; 1 µM): 0.637 GR
GR value ([4]; 3.162 µM): 0.489 GR
GR value (BSJ-03-123; 0.001 µM): 0.927 GR
GR value (BSJ-03-123; 0.003162 µM): 0.911 GR
GR value (BSJ-03-123; 0.01 µM): 0.863 GR
GR value (BSJ-03-123; 0.03162 µM): 0.788 GR
GR value (BSJ-03-123; 0.1 µM): 0.838 GR
GR value (BSJ-03-123; 0.3162 µM): 0.697 GR
GR value (BSJ-03-123; 1 µM): 0.625 GR
GR value (BSJ-03-123; 3.162 µM): 0.617 GR
GR value (BSJ-03-123; 10 µM): 0.22 GR
GR value ([5]; 0.0001 µM): 1.03 GR
GR value ([5]; 0.0003162 µM): 1.04 GR
GR value ([5]; 0.001 µM): 1.02 GR
GR value ([5]; 0.003162 µM): 0.969 GR
GR value ([5]; 0.01 µM): 1.02 GR
GR value ([5]; 0.03162 µM): 0.644 GR
GR value ([5]; 0.1 µM): -0.456 GR
GR value ([5]; 0.3162 µM): -0.359 GR
GR value ([5]; 1 µM): -0.434 GR
GR value (Neratinib/HKI272; 0.0003162 µM): 1.01 GR
GR value (Neratinib/HKI272; 0.001 µM): 1.03 GR
GR value (Neratinib/HKI272; 0.003162 µM): 0.972 GR
GR value (Neratinib/HKI272; 0.01 µM): 1.02 GR
GR value (Neratinib/HKI272; 0.03162 µM): 0.92 GR
GR value (Neratinib/HKI272; 0.1 µM): 0.864 GR
GR value (Neratinib/HKI272; 0.3162 µM): 0.741 GR
GR value (Neratinib/HKI272; 1 µM): 0.757 GR
GR value (Neratinib/HKI272; 3.162 µM): 0.733 GR
GR value ([6]; 0.001 µM): 0.95 GR
GR value ([6]; 0.003162 µM): 0.94 GR
GR value ([6]; 0.01 µM): 0.843 GR
GR value ([6]; 0.03162 µM): 0.604 GR
GR value ([6]; 0.1 µM): 0.461 GR
GR value ([6]; 0.3162 µM): 0.366 GR
GR value ([6]; 1 µM): 0.351 GR
GR value ([6]; 3.162 µM): 0.309 GR
GR value ([6]; 10 µM): 0.38 GR
GR value (THZ531; 0.0001 µM): 1.06 GR
GR value (THZ531; 0.0003162 µM): 0.851 GR
GR value (THZ531; 0.001 µM): 0.958 GR
GR value (THZ531; 0.003162 µM): 0.936 GR
GR value (THZ531; 0.01 µM): 1.03 GR
GR value (THZ531; 0.03162 µM): 0.969 GR
GR value (THZ531; 0.1 µM): 0.991 GR
GR value (THZ531; 0.3162 µM): 0.856 GR
GR value (THZ531; 1 µM): -0.208 GR
GR value (LEE011/Ribociclib; 0.001 µM): 0.912 GR
GR value (LEE011/Ribociclib; 0.003162 µM): 0.814 GR
GR value (LEE011/Ribociclib; 0.01 µM): 0.881 GR
GR value (LEE011/Ribociclib; 0.03162 µM): 0.801 GR
GR value (LEE011/Ribociclib; 0.1 µM): 0.812 GR
GR value (LEE011/Ribociclib; 0.3162 µM): 0.667 GR
GR value (LEE011/Ribociclib; 1 µM): 0.737 GR
GR value (LEE011/Ribociclib; 3.162 µM): 0.603 GR
GR value (LEE011/Ribociclib; 10 µM): 0.351 GR
GR value (THZ1; 0.0001 µM): 1.03 GR
GR value (THZ1; 0.0003162 µM): 1.02 GR
GR value (THZ1; 0.001 µM): 0.935 GR
GR value (THZ1; 0.003162 µM): 0.967 GR
GR value (THZ1; 0.01 µM): 0.949 GR
GR value (THZ1; 0.03162 µM): 0.915 GR
GR value (THZ1; 0.1 µM): 0.816 GR
GR value (THZ1; 0.3162 µM): 0.748 GR
GR value (THZ1; 1 µM): -0.165 GR
